ChEMBL document CHEMBL1156251, “Structure--activity relationships of polymyxin antibiotics” (J Med Chem, 2010)
pIC50: −log10 of the molar value. In brackets after ≈: the same amount, converted by molar mass. *1 amine or outer side, *2 acyl side, *3 side chain or, on linkers, in order; H or OH if unused. Where a SMILES comes first, the peptide text is derived from it. Bridges are numbered along the chain shown (N, C = ends). [ ]: non-standard residue; d: D form. The star is where a group is joined. X1 = NC(=O)[C@@H](CS[*:2])C(=O)[*:1]; Octanoyl = CCCCCCCC(=O)*; Dab = NCC[C@H](N)C(=O)O

What was measured:
Escherichia coli = test: Antimicrobial activity against Escherichia coli; format: functional
Salmonella enterica = test: Antimicrobial activity against Salmonella enterica; format: functional
Pseudomonas aeruginosa = test: Antimicrobial activity against Pseudomonas aeruginosa; format: functional, organism-based
Lipopolysaccharide (LPS) = test: Displacement of dansyl-PMB from LPS by isothermal titration calorimetry; settings: for pIC50: read-out: IC50

Compound	MIC (Escherichia coli) [µM]	MIC (Salmonella enterica)	MIC (Pseudomonas aeruginosa)	pIC50 (Lipopolysaccharide (LPS))	Ka (Lipopolysaccharide (LPS))
CC(=O)N[C@H](C(=O)N[C@@H](CCN)C(=O)N[C@H]1CCNC(=O)[C@H]([C@@H](C)O)NC(=O)[C@H](CCN)NC(=O)[C@H](CCN)NC(=O)[C@H](CC(C)C)NC(=O)[C@@H](CC(C)C)NC(=O)[C@H](CCN)NC1=O)[C@@H](C)O	128 (≈ 124 µg/mL)	> 512 µM	2 µM	–	–
CC(C)C[C@@H]1NC(=O)[C@@H](CC(C)C)NC(=O)[C@H](CCN)NC(=O)[C@@H](NC(=O)[C@H](CCN)NC(=O)[C@@H](NC(=O)[C@H](CCN)NC(=O)CC23CC4CC(CC(C4)C2)C3)[C@@H](C)O)CCNC(=O)[C@H]([C@@H](C)O)NC(=O)[C@H](CCN)NC(=O)[C@H](CCN)NC1=O	2 (≈ 2.41 µg/mL)	1 µM	1 µM	–	–
CC(C)C[C@@H]1NC(=O)[C@@H](CC(C)C)NC(=O)[C@H](CCN)NC(=O)[C@@H](NC(=O)[C@H](CCN)NC(=O)[C@@H](NC(=O)[C@H](CCN)NC(=O)c2ccc3cc4ccccc4cc3c2)[C@@H](C)O)CCNC(=O)[C@H]([C@@H](C)O)NC(=O)[C@H](CCN)NC(=O)[C@H](CCN)NC1=O	4 (≈ 4.93 µg/mL)	2 µM	2 µM	–	–
C[C@@H](O)[C@H](N)C(=O)N[C@@H](CCN)C(=O)N[C@H]1CCNC(=O)[C@H]([C@@H](C)O)NC(=O)[C@H](CCN)NC(=O)[C@H](CCN)NC(=O)[C@H](Cc2ccccc2)NC(=O)[C@@H](Cc2ccccc2)NC(=O)[C@H](CCN)NC1=O	–	–	≥ 250 mg/L	5.30	–
C[C@@H]1NC(=O)[C@@H](Cc2ccccc2)NC(=O)[C@H](CCN)NC(=O)[C@@H](NC(=O)[C@H](CCN)NC(=O)[C@@H](N)[C@@H](C)O)CCNC(=O)[C@H]([C@@H](C)O)NC(=O)[C@H](CCN)NC(=O)[C@H](CCN)NC1=O	–	–	≥ 250 mg/L	4.92	–
CC(C)C[C@@H]1NC(=O)[C@@H](Cc2ccc(O)cc2)NC(=O)[C@H](CCN)NC(=O)[C@@H](NC(=O)[C@H](CCN)NC(=O)[C@@H](N)[C@@H](C)O)CCNC(=O)[C@H]([C@@H](C)O)NC(=O)[C@H](CCN)NC(=O)[C@H](CCN)NC1=O	–	–	≥ 500 mg/L	4.60	–
CC(C)C[C@@H]1NC(=O)[C@@H](Cc2c[nH]c3ccccc23)NC(=O)[C@H](CCN)NC(=O)[C@@H](NC(=O)[C@H](CCN)NC(=O)[C@@H](N)[C@@H](C)O)CCNC(=O)[C@H]([C@@H](C)O)NC(=O)[C@H](CCN)NC(=O)[C@H](CCN)NC1=O	–	–	≥ 500 mg/L	5.40	–
CC[C@H](C)[C@H](N)C(=O)N[C@@H](CCCCN)C(=O)N[C@H](C(=O)N[C@@H](CCCCN)C(=O)N[C@@H](CCCCN)C(=O)N[C@@H](Cc1ccccc1)C(=O)N[C@@H](CC(C)C)C(=O)N[C@@H](CCCCN)C(=O)N[C@@H](CCCCN)C(=O)N[C@H](C(=O)O)[C@@H](C)O)[C@@H](C)O (H-IKTKKFLKKT-OH)	–	–	–	–	0.2 10^5/M
CC(C)C[C@@H]1NC(=O)[C@H](Cc2ccccc2)NC(=O)[C@H](CCCCN)NC(=O)[C@@H](C(N)=O)CSSC[C@@H](C(N)=O)NC(=O)[C@H](CCCCN)NC(=O)[C@H](CCCCN)NC1=O (KFLKKC-NH2; linker N-6 via X1)	–	> 1000 mg/L	–	–	1.15 10^5/M
CC(C)C[C@@H]1NC(=O)[C@H](Cc2ccccc2)NC(=O)[C@H](CCCCN)NC(=O)[C@@H](C(N)=O)CSSC[C@@H](C(=O)N[C@@H](CCCCN)C(=O)N[C@H](C(=O)NCC(=O)N[C@@H](CCCCN)C(=O)O)[C@@H](C)O)NC(=O)[C@H](CCCCN)NC(=O)[C@H](CCCCN)NC1=O (KFLKKCKTGK-OH; linker N-6 via X1)	–	> 1000 mg/L	–	–	0.56 10^7/M
CC(C)C[C@@H]1NC(=O)[C@@H](Cc2ccccc2)NC(=O)[C@H](CCN)NC(=O)[C@@H](NC(=O)[C@H](CCN)NC(=O)[C@@H](NC(=O)[C@H](CCN)NC(=O)CC23CC4CC(CC(C4)C2)C3)[C@@H](C)O)CCNC(=O)[C@H]([C@@H](C)O)NC(=O)[C@H](CCN)NC(=O)[C@H](CCN)NC1=O [1-ADAMANTANEACETIC ACID POLYMIXIN B]	1 (≈ 1.24 µg/mL)	0.5 µM	1 µM	–	–
CC(C)C[C@@H]1NC(=O)[C@@H](Cc2ccccc2)NC(=O)[C@H](CCN)NC(=O)[C@@H](NC(=O)[C@H](CCN)NC(=O)[C@@H](NC(=O)[C@H](CCN)NC(=O)Cc2ccc(-c3ccccc3)cc2)[C@@H](C)O)CCNC(=O)[C@H]([C@@H](C)O)NC(=O)[C@H](CCN)NC(=O)[C@H](CCN)NC1=O [4-BIPHENYL ACETIC ACID POLYMIXIN B]	0.5 (≈ 0.629 µg/mL)	1 µM	1 µM	–	–
CC(C)C[C@@H]1NC(=O)[C@@H](Cc2ccccc2)NC(=O)[C@H](CCN)NC(=O)[C@@H](NC(=O)[C@H](CCN)NC(=O)[C@@H](NC(=O)[C@H](CCN)NC(=O)C2CCCCCCCCCCC2)[C@@H](C)O)CCNC(=O)[C@H]([C@@H](C)O)NC(=O)[C@H](CCN)NC(=O)[C@H](CCN)NC1=O [CYCLODEDECANE CARBOXYLIC ACID POLYMIXIN B]	2 (≈ 2.52 µg/mL)	2 µM	2 µM	–	–
CC(C)C[C@@H]1NC(=O)[C@@H](CC(C)C)NC(=O)[C@H](CCN)NC(=O)[C@@H](NC(=O)[C@H](CCN)NC(=O)[C@@H](NC(=O)[C@H](CCN)NC(=O)C2CCCCCCCCCCC2)[C@@H](C)O)CCNC(=O)[C@H]([C@@H](C)O)NC(=O)[C@H](CCN)NC(=O)[C@H](CCN)NC1=O [CYCLODODECANE CARBOXYLIC ACID COLISTIN]	4 (≈ 4.89 µg/mL)	2 µM	2 µM	–	–
CC(C)C[C@@H]1NC(=O)[C@@H](CC(C)C)NC(=O)[C@H](CCN)NC(=O)[C@@H](NC(=O)[C@H](CCN)NC(=O)[C@@H](NC(=O)[C@H](CCN)NC(=O)C(c2ccccc2)C2CCCC2)[C@@H](C)O)CCNC(=O)[C@H]([C@@H](C)O)NC(=O)[C@H](CCN)NC(=O)[C@H](CCN)NC1=O (stereo not given in full) [CYCLOPENTYLPHENYL ACETIC ACID COLISTIN]	16 (≈ 19.4 µg/mL)	16 µM	2 µM	–	–

The next lines start with the values.

MIC (Escherichia coli) [µM]	MIC (Salmonella enterica)	MIC (Pseudomonas aeruginosa)	pIC50 (Lipopolysaccharide (LPS))	Ka (Lipopolysaccharide (LPS))	Compound
32 (≈ 32.2 µg/mL)	128 µM	2 µM	–	–	CC(=O)N[C@H](C(=O)N[C@@H](CCN)C(=O)N[C@H]1CCNC(=O)[C@H]([C@@H](C)O)NC(=O)[C@H](CCN)NC(=O)[C@H](CCN)NC(=O)[C@H](CC(C)C)NC(=O)[C@@H](Cc2ccccc2)NC(=O)[C@H](CCN)NC1=O)[C@@H](C)O
4 (≈ 4.69 µg/mL)	4 µM	4 µM	–	–	CCCCCCCCCCCCCC(=O)N[C@H](C(=O)N[C@@H](CCN)C(=O)N[C@H]1CCNC(=O)[C@H]([C@@H](C)O)NC(=O)[C@H](CCN)NC(=O)[C@H](CCN)NC(=O)[C@H](CC(C)C)NC(=O)[C@@H](Cc2ccccc2)NC(=O)[C@H](CCN)NC1=O)[C@@H](C)O
1 (≈ 1.22 µg/mL)	2 µM	1 µM	–	–	CC(C)C[C@@H]1NC(=O)[C@@H](CC(C)C)NC(=O)[C@H](CCN)NC(=O)[C@@H](NC(=O)[C@H](CCN)NC(=O)[C@@H](NC(=O)[C@H](CCN)NC(=O)Cc2ccc(-c3ccccc3)cc2)[C@@H](C)O)CCNC(=O)[C@H]([C@@H](C)O)NC(=O)[C@H](CCN)NC(=O)[C@H](CCN)NC1=O
0.5 (≈ 0.608 µg/mL)	0.5 µM	1 µM	–	–	CC(C)C[C@@H]1NC(=O)[C@@H](Cc2ccccc2)NC(=O)[C@H](CCN)NC(=O)[C@@H](NC(=O)[C@H](CCN)NC(=O)[C@@H](NC(=O)[C@H](CCN)NC(=O)CCCC2CCCCC2)[C@@H](C)O)CCNC(=O)[C@H]([C@@H](C)O)NC(=O)[C@H](CCN)NC(=O)[C@H](CCN)NC1=O
1 (≈ 1.42 µg/mL)	1 µM	1 µM	–	–	CCCCCCCC(=O)N[C@@H](CCNS(=O)(=O)c1cccc2c(N(C)C)cccc12)C(=O)N[C@H](C(=O)N[C@@H](CCN)C(=O)N[C@H]1CCNC(=O)[C@H]([C@@H](C)O)NC(=O)[C@H](CCN)NC(=O)[C@H](CCN)NC(=O)[C@H](CC(C)C)NC(=O)[C@@H](Cc2ccccc2)NC(=O)[C@H](CCN)NC1=O)[C@@H](C)O
2 (≈ 2.32 µg/mL)	2 µM	2 µM	–	–	CCCCCCCC(=O)N[C@@H](C)C(=O)N[C@H](C(=O)N[C@@H](CCN)C(=O)N[C@H]1CCNC(=O)[C@H]([C@@H](C)O)NC(=O)[C@H](CCN)NC(=O)[C@H](CCN)NC(=O)[C@H](CC(C)C)NC(=O)[C@@H](Cc2ccccc2)NC(=O)[C@H](CCN)NC1=O)[C@@H](C)O (Octanoyl-AT[Dab][Dab][Dab][dF]L[Dab][Dab]T; lactam 4-C)
8 (≈ 9.28 µg/mL)	4 µM	2 µM	–	–	CCCCCCCC(=O)N[C@@H](CCN)C(=O)N[C@@H](C)C(=O)N[C@@H](CCN)C(=O)N[C@H]1CCNC(=O)[C@H]([C@@H](C)O)NC(=O)[C@H](CCN)NC(=O)[C@H](CCN)NC(=O)[C@H](CC(C)C)NC(=O)[C@@H](Cc2ccccc2)NC(=O)[C@H](CCN)NC1=O (Octanoyl-[Dab]A[Dab][Dab][Dab][dF]L[Dab][Dab]T; lactam 4-C)
1 (≈ 1.16 µg/mL)	1 µM	2 µM	–	–	CCCCCCCC(=O)N[C@@H](CCN)C(=O)N[C@H](C(=O)N[C@@H](C)C(=O)N[C@H]1CCNC(=O)[C@H]([C@@H](C)O)NC(=O)[C@H](CCN)NC(=O)[C@H](CCN)NC(=O)[C@H](CC(C)C)NC(=O)[C@@H](Cc2ccccc2)NC(=O)[C@H](CCN)NC1=O)[C@@H](C)O (Octanoyl-[Dab]TA[Dab][Dab][dF]L[Dab][Dab]T; lactam 4-C)
4 (≈ 4.87 µg/mL)	2 µM	2 µM	–	–	CC(C)C[C@@H]1NC(=O)[C@@H](Cc2ccccc2)NC(=O)[C@H](CCN)NC(=O)[C@@H](NC(=O)[C@H](CCN)NC(=O)[C@@H](NC(=O)[C@H](CCN)NC(=O)c2ccc3ccccc3c2)[C@@H](C)O)CCNC(=O)[C@H]([C@@H](C)O)NC(=O)[C@H](CCN)NC(=O)[C@H](CCN)NC1=O [2-ANTHRACENE CARBOXYLIC ACID POLYMIXIN B]
8 (≈ 10 µg/mL)	8 µM	2 µM	–	–	CC(C)C[C@@H]1NC(=O)[C@@H](Cc2ccccc2)NC(=O)[C@H](CCN)NC(=O)[C@@H](NC(=O)[C@H](CCN)NC(=O)[C@@H](NC(=O)[C@H](CCN)NC(=O)C(c2ccccc2)C2CCCC2)[C@@H](C)O)CCNC(=O)[C@H]([C@@H](C)O)NC(=O)[C@H](CCN)NC(=O)[C@H](CCN)NC1=O (stereo not given in full) [CYCLOPENTYLPHENYL ACETIC ACID POLYMIXIN B]
1 (≈ 1.06 µg/mL)	4 µM	2 µM	–	–	CCCCCCCC(=O)N[C@H](C(=O)N[C@@H](CCN)C(=O)N[C@H]1CCNC(=O)[C@H]([C@@H](C)O)NC(=O)[C@H](CCN)NC(=O)[C@H](CCN)NC(=O)[C@H](CC(C)C)NC(=O)[C@@H](CC(C)C)NC(=O)[C@H](CCN)NC1=O)[C@@H](C)O [Octanoyl colistin nonapeptide]
